The values that follow are results of earlier work, collected in patent publication US8563554B2, “Deuterated pyrazinoisoquinoline compounds” (Concert Pharmaceuticals, Inc., priority 2009, dated 2013).

The structures appear in SMILES notation.

`O=C(C1CCCCC1)N1CC(=O)N2CCc3ccccc3C2C1` (centres unmarked) [praziquantel, 2-(cyclohexylcarbonyl)-1,2,3,6,7,11b-hexahydro-4H-pyrazino[2,1-a]isoquinolin-4-one]: the “dose excreted in the kidneys” value (share of a dose of praziquantel) is reported as “Approximately 80%”. The “excreted in the form of metabolites” value (share of the renally excreted dose present as metabolites) was over 99%.
